Results reported in patent US11383003B2, “Water soluble farnesol analogs and their use” (Kimberly-Clark Worldwide, Inc., priority 2012, dated 2022).

How the values were obtained:
[1] = test system: C. albicans SC5314; experiment: Germ tube formation (GTF %) in vitro screening, GlcNAc-triggered differentiation assay; format: cell-based, Candida albicans
Experimental: Based on the results in FIG. 3, single cell suspensions of SC5314 was prepared as follows. Stock culture of C. albicans SC5314 was streaked onto YPD agar (YPDA) and incubated at 30° C. overnight. Single colonies were subcultured in YPD broth (YPDB) and incubated 30° C., 200 rpm overnight. Overnight culture in YPDB was subcultured in YPD broth again and incubated 30° C., 200 rpm 48 h. Cells were collected by centrifugation (4000 g 10 min) at 4° C., washed three times with sterile water, and then resuspended in sterile water a final concentration of 10^9 colony-forming unit/ml (cfu/ml). The suspension were stored at 4° C. at least 1 d, then subcultured into YPDB to a final concentration of 10^6 cfu/ml. After 48 h incubation, cell suspension was examined under the microscope for single cell percentage. When the single cell percentage exceeded 80%, cells were collected and washed three times with water, then resuspended in water to a final concentration of 10^9 cfu/ml, and stored at 4° C. for no more than a month.
Two approaches were taken to determine the percentage of cells with germ tubes formed (GTF %). One way was to count the total cells at the start of incubation, and count the ungerminated cells after incubation, then calculate the GTF % as (1—ungerminated cells/total cells at 0 h)*100. Another way was to store the samples at 15° C. for 20 h after incubation, then count the germinated cells and total cells after disaggregation, then calculated the GTF % as (germinated cells/total cells after storage)*100. […] Therefore, for practical purposes, the GTF % was determined by the first method, that is, GTF %=(1—ungerminated cells/total cells at 0 h)*100, for the in vitro screening discussed herein.
A screening medium, containing 11 mM imidazole buffer, 3 mM MgSO4, and 2.6 mM N-acetyl-D-glucosamine (GlcNAc) has been used to study the effect of farnesol analogs on the germ tube formation of C. albicans. Here, the germ tube formation of C. albicans in modified screening media was assessed with various concentrations of imidazole buffer (10 mM, 30 mM and 50 mM) and MgSO4 (0.5 mM, 1.5 mM and 3 mM). […] It took 2 h to 3 h for the GTF % to reach above 80%. For practical purposes, the screening medium, containing 11 mM imidazole buffer, 0.5 mM MgSO4, and 2.6 mM N-acetyl-D-glucosamine (GlcNAc) was adopted for in vitro screening the quorum sensing inhibitory effect of farnesol compounds.
The in vitro screening assay was based on the N-acetylglucosamine (GlcNAc)-triggered differentiation assay (Hornby et al., “Quorum sensing in the dimorphic fungus Candida albicans is mediated by farnesol;” Applied and Environmental Microbiology 67:2982-2992; 2001), which included 0.56 ml of 0.1 M imidazole buffer (pH 6.5), 0.15 ml of 0.1 M MgSO4, 0.13 ml of 0.1 M GlcNAc, and 4.16 ml of sterilized water. Bioassays of quorum sensing candidates were conducted by the addition of the chemical, as a solution in 100% methanol, to the bioassay media; the final concentration of methanol was no greater than 1%.

[2] = test system: C. elegans glp4; sek1; experiment: Toxicity: death rate of C. elegans glp4; sek1 fed on E. coli OP50; settings: for Death rate (%): 2 mM, worms fed on E. coli OP50, 25° C.; for toxicity to C. elegans fed on E. coli OP50 (in words): in vivo
Experimental: The toxicity of the selected compounds/products were tested using the C. elegans glp4; sek1 fed on E. coli OP50 (Table 5).
Stock cultures of C. albicans SC 5314 was subcultured into 3 ml of YPD broth and incubated at 30° C. Then the overnight culture in broth was spread onto YPD agar, and incubated at 30° C. The 24 h old lawn of SC5314 was used to feed worms for 2 h at 25° C. The control were worms fed on OP50.
The worms were washed off the YPD plates and washed twice with M9 buffer. The worms were resuspended in screening media, M9 buffer with 0.3% Tween 80. The worm suspension (50 μl) was dispensed into the wells of 96-well plates, 20-30 worms/well. Aliquots (50 μl) of compounds in screening media were added to wells, 5 wells each compound. The 96 well plates were incubated at 25° C. for up to 5 days. Live and dead worms were counted during incubation, and the death rates of worms were calculated.

[3] = test system: C. elegans glp4; sek1 infected with C. albicans SC5314; experiment: Death rate of C. elegans glp4; sek1 infected with C. albicans SC5314, 96 well plates; format: in vivo, Caenorhabditis elegans; settings: for % change in the death rate compared to the control: 25° C.
Experimental: Caenorhabditis elegans glp4; sek1 was used as the model for […]. Breger et al. (Breger, J.; Fuchs, B. B.; Aperis, G.; Moy, T. I., Ausubel, F. M., Mylonakis, E.; “Antifungal chemical compounds identified using a C. elegans pathogenicity assay.” PLoS Pathogens 3: 168-178; 2007) reported that the glp-4 mutation rendered the strain incapable of producing progeny at 25° C., and the sek-1 mutation enhanced the sensitivity of the strain to various pathogens, thereby decreasing the time for screening assays. It was observed that no progenies was produced by the Caenorhabditis elegans glp4; sek1 strain after 3 d incubation at 25° C.
The synchronization of C. elegans was achieved by collecting the eggs and arresting the larvae at L1 stage. The commonly used bleach treatment was able to release the eggs from the adult worms. However, it was observed that the released eggs were not always able to hatch after treated with sodium hypochlorite (0.2, 0.3, 0.4, 0.5, 0.7 or 1%) for 3-5 min. A modified egg laying method was developed to synchronize worms to L1 stage. In brief, stock cultures of C. elegans glp4; sek1, maintained on Nematode Growth Media plates (NGM plates), were subcultured onto NGM plates with OP 50 and incubated at 15° C. for 6-9 days. Then a chunk (1 cm^2) of agar with gravid adults was subcultured again onto NGM plates with OP50 and incubated at 15° C. After incubation of 3-7 days, the worms were gently washed off with 3 ml of M 9 buffer on the rotating platform (100 rpm). The plate was tilted on its lid to allow the liquid and worms drain to one side of the plate. The liquid and worms were aspirated off. The plate was washed again with M9 buffer three more times to remove OP50 as much as possible. After washing, the plate was incubated at 25° C. overnight to let the eggs hatch overnight. Since there was no OP50, the larvae were arrested at the L1 stage. The live C. elegans glp4; sek1 was quite curvy; whereas the dead C. elegans glp4; sek1 tended to be straight, and in most cases the dead worms with the hyphae of C. albicans pieced through the body. The curvy shape and movement after shaking were used as the criteria for live.
The In vitro screening assay, based on the method of Tampakakis et al (Tampakakis, E.; Okoli, I.; Mylonakis, E.; “A C. elegans-based, whole animal, in vivo screen for the identification of antifungal compounds.” Nature Protocols 3:1925-1931; 2008), is described as follows:
L1 worms, which were prepared by the modified egg-laying method, were collected by centrifugation at 675 g for 30 s at room temperature, and the supernatant was removed. Worms were resuspended in M 9 buffer and inoculated on NGM agar plates with OP50, ˜1000 worms per plate. After 2-3 days incubation at 25° C., the worms were washed off with M 9 buffer for the […] assay.
The control were worms fed on OP50.

[4] = 0.4 mM to 3 mM (the tested four concentrations)
[5] = 2.0 mM, 4 days, two replicates (* three)
[6] = 2.0 mM, 5 days, two replicates (* three)

Row | SMILES | GTF % (mean ± SEM, n = 2) ([1]; 100 μM, * one replicate) | GTF % (mean ± SEM, n = 2) ([1]; 200 μM) | Death rate (%) [2] | toxicity to C. elegans fed on E. coli OP50 (in words) [2] | effect on death rate of infected C. elegans (in words) [3, 4] | % change in the death rate compared to the control ([3]; 0.4 mM, 4 days, two replicates) | % change in the death rate compared to the control ([3]; 0.4 mM, 5 days, two replicates) | % change in the death rate compared to the control ([3]; 1.0 mM, 4 days, two replicates) | % change in the death rate compared to the control ([3]; 1.0 mM, 5 days, two replicates) | % change in the death rate compared to the control [3, 5] | % change in the death rate compared to the control [3, 6] | % change in the death rate compared to the control ([3]; 3.0 mM, 4 days, two replicates) | % change in the death rate compared to the control ([3]; 3.0 mM, 5 days, two replicates) | effect on death rate of infected C. elegans (in words) ([3]; key finding, no concentration stated)
1 | OC=Cc1ccccc1 [β-phenylethenol] | 91.7* % | 84.5 ± 0.3% | – | – | – | – | – | – | – | – | – | – | – | –
2 | COc1cc(CCN)ccc1O [3-Methoxy-4-hydroxy-phenylethyl amine] | 95.7* % | 86.4 ± 3.3% | – | – | – | – | – | – | – | – | – | – | – | –
3 | C=CC(C)(O)CC/C=C(\C)CCC=C(C)C (stereo not drawn) [trans-nerolidol, reference compound] | 92.4* % | 51.6 ± 1.8% | 23% | toxic to the worm | increased the death rate of the worm significantly | 11 ± 4% | 4 ± 5% | 3 ± 7% | −8 ± 5% | 25 ± 10% | 10 ± 2% | 7 ± 0% | 9 ± 9% | –
4 | CC(C)=CCC/C(C)=C/CC/C(C)=C/COCCCCO [#5 synthesized analog] | 73.8 ± 4.8% | 53.6 ± 3.0% | 4% | – | did not have significant effect on the death of the worms | −3 ± 6% | −6 ± 3% | 2 ± 3% | 9 ± 1% | −8 ± 1% | 2 ± 2% | −4 ± 4% | 4 ± 1% | –
5 | CC(C)=CCC/C(C)=C/CC/C(C)=C/COC(=O)CCC(=O)OCCO [#4 synthesized analog] | 59.2 ± 4.8% | 31.1 ± 8.2% | 2% | – | did not have significant effect on the death of the worms | 8 ± 8% | 7 ± 1% | −3 ± 3% | −1 ± 4% | 4 ± 8% | 8 ± 11% | 7 ± 4% | 10 ± 5% | –
6 | CC(C)=CCC/C(C)=C/CC/C(C)=C/COC(=O)CCC(=O)OCCCCO [#2 synthesized analog] | 71.2 ± 2.9% | 33.9 ± 0.6% | 4 ± 0.6% | – | reduced the death rate significantly | −36 ± 4% | −38 ± 2% | −28 ± 5% | −29 ± 10% | −39 ± 11% | −39 ± 11% | −40 ± 0% | −40 ± 4% | significantly reduced the death rate
7 | CC(=O)OCC=C(C)CCC=C(C)CCC=C(C)C [farnesyl acetate, reference compound] | 51.9 ± 2.1% | 36.8 ± 0.8% | 12% | toxic to the worm | increased the death rate of the worm significantly | 10 ± 6% | 4 ± 3% | 27 ± 7% | 15 ± 7% | 21 ± 5% | 9 ± 2% | 24 ± 9% | 7 ± 10% | –
